Source: patent US11414431B2, “Substituted pyrazolo[1,5-a]pyrimidines as TYK2 inhibitors” (Nimbus Lakshmi, Inc., priority 2018, dated 2022)

Tested on: IL-12 induced STAT4 phosphorlyation mediated by TYK2/JAK2
Experiment: IL-12 Induced pSTAT4 in Human PBMC
Format: cell-based
Details: 1.7 ng/mL IL-12 for 30 minutes
Description: Human PBMC were isolated from buffy coat and are stored frozen for assays as needed. […] 15 μL of compound or DMSO was added to the well at the desired concentrations and incubated at 1 hr at 37° C. 15 μL of stimulus (final concentration of 1.7 ng/mL IL-12) was added for 30 minutes prior to pSTAT4 and total STAT4 analysis using cell lysates prepared and analyzed by MSD reagents as per manufacturer protocol. The final DMSO concentration of compound in the assay was 0.1%.
The IL-12 induced pSTAT4 assay evaluates the inhibition of IL-12 induced STAT4 phosphorlyation mediated by TYK2/JAK2 (heterpdimeric complex).

IC50 (0.5 h) | IC50 | SMILES
0.1 to 0.5 µM |  | CNc1cc(-c2cnc3n([C@@H]4CCOC[C@@H]4F)cccc2-3)nc2c(C(=O)NC3CC[C@H]3O)cnn12 (stereo partly drawn) [Compound I-939, 5-(7-((3R,4R)-3-fluorotetrahydro-2H-pyran-4-yl)-7H-pyrrolo[2,3-b]pyridin-3-yl)-N-((cis-1,2)-2-hydroxycyclobutyl)-7-(methylamino)pyrazolo[1,5-a]pyrimidine-3-carboxamide]
 | 0.1 to 0.5 µM | CNc1cc(-c2cnc3n([C@@H]4CCOC4)cccc2-3)nc2c(C(=O)N[C@@H]3CC[C@H]3OC)cnn12 [Compound I-1005]
 | < 0.1 µM | CNc1cc(-c2cnc3n([C@@H]4COC[C@H]4O)cccc2-3)nc2c(C(=O)NC3CC[C@@H]3F)cnn12 (some centres unmarked) [Compound I-827]
0.1 to 0.5 µM |  | CNc1cc(-c2cn(CC(=O)N3CCC3)c3ncccc23)nc2c(C(=O)NC3CC[C@@H]3OC)cnn12 (stereo in doubt) [Compound I-928, 5-(1-(2-(azetidin-1-yl)-2-oxoethyl)-1H-pyrrolo[2,3-b]pyridin-3-yl)-N-(2-methoxycyclobutyl)-7-(methylamino)pyrazolo[1,5-a]pyrimidine-3-carboxamide]
 | < 0.1 µM | CNc1cc(-c2cn([C@@H]3COC[C@@H]3F)c3ncccc23)nc2c(C(=O)N[C@H]3CC[C@@H]3OC)cnn12 [Compound I-622]
< 0.1 µM |  | CNc1cc(Nc2cccn([C@H]3CCC[C@@H](C#N)C3)c2=O)nc2c(C(=O)NC3CC[C@@H]3OC)cnn12 (stereo partly drawn) [Compound I-114, 5-((1-((1S,3R)-3-Cyanocyclohexyl)-2-oxo-1,2-dihydropyridin-3-yl)amino)-N-((trans-1,2)-2-methoxycyclobutyl)-7-(methylamino)pyrazolo[1,5-a]pyrimidine-3-carboxamide]
 | < 0.1 µM | CNc1cc(-c2cn([C@@H]3COC[C@@H]3F)c3ncccc23)nc2c(C(=O)N[C@H]3CC[C@H]3O)cnn12 [Compound I-571]
 | 0.1 to 0.5 µM | CNc1cc(-c2cn([C@@H]3CCOC[C@H]3F)c3ncccc23)nc2c(C(=O)N[C@H]3COC[C@H]3O)cnn12 [Compound I-937]
 | < 0.1 µM | CNc1cc(Nc2cccn([C@H]3CCC[C@H]3O)c2=O)nc2c(C(=O)N[C@H]3CC[C@]3(C)OC)cnn12 [Compound I-391]
 | 0.5 to 1 µM | CNc1cc(-c2cnc3n([C@H]4CCOC[C@H]4F)cccc2-3)nc2c(C(=O)NC3CC[C@H]3O)cnn12 (some centres unmarked) [Compound I-942]
 | 0.5 to 1 µM | CNc1cc(-c2cn([C@@H]3COC[C@H]3OC)c3ncccc23)nc2c(C(=O)NC3CC[C@H]3O)cnn12 (some centres unmarked) [Compound I-587]
< 0.1 µM |  | CNc1cc(-c2cn([C@H]3CCC[C@H]3F)c3ncccc23)nc2c(C(=O)NC3COC[C@H]3O)cnn12 (stereo partly drawn) [Compound I-721, 5-(1-((1S,2R)-2-Fluorocyclopentyl)-1H-pyrrolo[2,3-b]pyridin-3-yl)-N-((cis-3,4)-4-hydroxytetrahydrofuran-3-yl)-7-(methylamino)pyrazolo[1,5-a]pyrimidine-3-carboxamide]
 | 0.1 to 0.5 µM | CO[C@H]1CCC1NC(=O)c1cnn2c(N)cc(-c3cnc4n([C@H]5COC[C@@H]5OC)cccc3-4)nc12 (some centres unmarked) [Compound I-999]
 | < 0.1 µM | CNc1cc(-c2cn([C@@H]3CC3(F)F)c3ncccc23)nc2c(C(=O)NC3CC[C@H]3O)cnn12 (some centres unmarked) [Compound I-548]
 | 0.1 to 0.5 µM | CNc1cc(-c2cn([C@@H]3CC(=O)N(C)C3)c3ncccc23)nc2c(C(=O)N[C@H]3CC[C@@H]3OC)cnn12 [Compound I-1022]
 | < 0.1 µM | CNc1cc(Nc2cccn([C@H]3C[C@H](F)C3)c2=O)nc2c(C(=O)N[C@H]3CC[C@@H]3F)cnn12 [Compound I-165]
 | < 0.1 µM | CNc1cc(-c2cn([C@@H]3CCOC[C@H]3O)c3ncccc23)nc2c(C(=O)N[C@H]3CC[C@@H]3F)cnn12 [Compound I-538]
 | < 0.1 µM | CNc1cc(Nc2cccn(C(C)C)c2=O)nc2c(C(=O)N[C@@H]3CC[C@H]3F)cnn12 [Compound I-147]
 | < 0.1 µM | CNc1cc(Nc2cccn([C@@H]3CC[C@H]3OC)c2=O)nc2c(C(=O)N[C@H]3CC[C@H]3O)cnn12 [Compound I-243]

IC50 (0.5 h) | IC50 | SMILES
 | < 0.1 µM | CNc1cc(-c2cnc3n([C@H]4COC[C@@H]4OC)cccc2-3)nc2c(C(=O)N[C@@H]3CC[C@@H]3F)cnn12 [Compound I-840]
 | < 0.1 µM | CNc1cc(-c2cnc3n([C@@H]4COC[C@H]4O)cccc2-3)nc2c(C(=O)N[C@H]3CC[C@@H]3F)cnn12 [Compound I-830]
 | < 0.1 µM | CNc1cc(-c2cn([C@@H]3CCOC[C@H]3F)c3ncccc23)nc2c(C(=O)N[C@H]3CC[C@@H]3OC)cnn12 [Compound I-804]
 | < 0.1 µM | CNc1cc(-c2cnc3n(CC(C)(C)O)cccc2-3)nc2c(C(=O)N[C@H]3CC[C@@H]3OC)cnn12 [Compound I-983]
 | 0.1 to 0.5 µM | CNc1cc(-c2cn([C@@H]3COC[C@@H]3F)c3ncccc23)nc2c(C(=O)N[C@@H]3COC[C@@H]3O)cnn12 [Compound I-730]
< 0.1 µM |  | CNc1cc(-c2cn([C@H]3C[C@@H](COC)C3)c3ncccc23)nc2c(C(=O)NC3CC[C@@H]3OC)cnn12 (stereo partly drawn) [Compound I-932, N-(2-methoxycyclobutyl)-5-(1-((1s,3R)-3-(methoxymethyl)cyclobutyl)-1H-pyrrolo[2,3-b]pyridin-3-yl)-7-(methylamino)pyrazolo[1,5-a]pyrimidine-3-carboxamide]
 | < 0.1 µM | CNc1cc(Nc2cccn([C@H]3C[C@H](F)C3)c2=O)nc2c(C(=O)N[C@H]3CC[C@H](O)C3)cnn12 [Compound I-436]
 | < 0.1 µM | CNc1cc(-c2cnc3n([C@@H]4CCOC4)cccc2-3)nc2c(C(=O)NC3CC[C@@H]3OC)cnn12 (some centres unmarked) [Compound I-995]
 | < 0.1 µM | CNc1cc(Nc2cccn([C@H]3CCC[C@@](C)(O)C3)c2=O)nc2c(C(=O)N[C@@H]3C[C@@H]3F)cnn12 [Compound I-129]
 | < 0.1 µM | CNc1cc(-c2cn([C@@H]3CCOC[C@@H]3OC)c3ncccc23)nc2c(C(=O)NC3CC[C@@H]3OC)cnn12 (some centres unmarked) [Compound I-668]
< 0.1 µM |  | CO[C@@H]1CCC1NC(=O)c1cnn2c3c(c(Nc4cccn(C(C)C)c4=O)nc12)OCCN3 (stereo in doubt) [Compound I-759, 5-((1-Isopropyl-2-oxo-1,2-dihydropyridin-3-yl)amino)-N-(2-methoxycyclobutyl)-2,3-dihydro-1H-pyrazolo[5′,1′:2,3]pyrimido[5,4-b][1,4]oxazine-7-carboxamide]
 | < 0.1 µM | CNc1cc(-c2cnc3n([C@H]4COC[C@@H]4OC)cccc2-3)nc2c(C(=O)N[C@H]3CC[C@H]3F)cnn12 [Compound I-839]
 | < 0.1 µM | CNc1ccc(-c2cc(NC)n3ncc(C(=O)NC4CC[C@H]4F)c3n2)n2ccnc12 (some centres unmarked) [Compound I-483]
 | < 0.1 µM | CNc1cc(Nc2cccn([C@@H]3CCC[C@](C)(OC)C3)c2=O)nc2c(C(=O)NC3CC3)cnn12 [Compound I-124]
 | < 0.1 µM | CNc1cc(Nc2cccn([C@H]3CCCOC3)c2=O)nc2c(C(=O)NC3CC[C@@H]3F)cnn12 (some centres unmarked) [Compound I-197]
 | < 0.1 µM | CNc1cc(-c2cn([C@H]3CN(C)C[C@@H]3OC)c3ncccc23)nc2c(C(=O)N[C@H]3CC[C@@H]3OC)cnn12 [Compound I-649]
 | < 0.1 µM | CNc1cc(Nc2cccn(C3CCOCC3)c2=O)nc2c(C(=O)N[C@@H]3CC[C@H]3F)cnn12 [Compound I-190]
 | < 0.1 µM | CNc1cc(-c2cn(C3CCCC3)c3ncccc23)nc2c(C(=O)N[C@@H]3CCC3(F)F)cnn12 [Compound I-681]
 | < 0.1 µM | CNc1cc(Nc2cccn([C@H]3[C@@H]4COC[C@@H]43)c2=O)nc2c(C(=O)N[C@@H]3CC[C@@H]3F)cnn12 [Compound I-205]
